Assay results as given in ChEMBL document CHEMBL5321221, “Structure-activity relationship study of RSL3-based GPX4 degraders and its potential noncovalent optimization” (Eur J Med Chem, 2023).
Values belong to the compound of their own block, whether it stands above or below them. The source made the active and inactive calls. The rule behind the calls is not given here.

Columns and labels:
[1] = target: T1, Phospholipid hydroperoxide glutathione peroxidase GPX4 (Homo sapiens) (UniProt P36969); assay: Induction of GPX4 degradation in human HT-1080 cells at 0.1 uM incubated for 6 hrs relative to control; assay type: cell-based
T1 sequence (whole entry): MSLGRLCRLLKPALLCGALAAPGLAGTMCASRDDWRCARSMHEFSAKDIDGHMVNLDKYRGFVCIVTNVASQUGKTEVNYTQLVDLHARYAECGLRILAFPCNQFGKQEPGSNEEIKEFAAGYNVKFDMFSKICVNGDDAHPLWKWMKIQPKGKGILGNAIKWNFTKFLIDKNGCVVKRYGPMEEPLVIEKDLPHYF

[2] = target: T1, Phospholipid hydroperoxide glutathione peroxidase GPX4 (Homo sapiens); assay: Induction of GPX4 degradation in human HT-1080 cells at 10 uM incubated for 24 hrs relative to control; assay type: cell-based
[3] = target: T1, Phospholipid hydroperoxide glutathione peroxidase GPX4 (Homo sapiens); assay: Induction of GPX4 degradation in human HT-1080 cells at 10 nM incubated for 24 hrs relative to control; assay type: cell-based
[4] = target: T1, Phospholipid hydroperoxide glutathione peroxidase GPX4 (Homo sapiens); assay: Induction of GPX4 degradation in human HT-1080 cells at 10 uM incubated for 24 hrs by Western blotting analysis; assay type: cell-based
[5] = target: T1, Phospholipid hydroperoxide glutathione peroxidase GPX4 (Homo sapiens); assay: Induction of GPX4 degradation in human HT-1080 cells at 0.1 to 1 uM incubated for 24 hrs; assay type: cell-based; settings: dose 0.1-1 µM
HT-1080 [6] = assay: Antiproliferative activity against human HT-1080 cells at 10 uM; assay type: functional, cell-based
HT-1080 [7] = assay: Antiproliferative activity against human HT-1080 cells incubated for 24 hrs; assay type: functional, cell-based; settings: HT-1080, 24 h
[8] = Antiproliferative activity against human HEK293T cells incubated for 24 hrs; assay type: toxicity, cell-based, HEK-293T
[9] = target: T2, Phospholipid hydroperoxide glutathione peroxidase GPX4 (Homo sapiens, UniProt P36969); assay: Induction of GPX4 degradation in human NCI-H1650 cells incubated for 24 hrs; assay type: cell-based
T2 sequence (P36969 whole entry): T1 sequence (whole entry)

HT-1080 [10] = assay: Potency index, ratio of methyl (1S,3R)-1-(4-acetylphenyl)-2-(2-chloroacetyl)-2,3,4,9-tetrahydro-1H-pyrido[3,4-b]indole-3-carboxylate IC50 to test compound IC50 for antiproliferative activity against human HT-1080 cells; assay type: functional
[11] = target: T2, Phospholipid hydroperoxide glutathione peroxidase GPX4; assay: Induction of GPX4 degradation in gefitinib resistant human NCI-H1650 cells incubated for 24 hrs; assay type: cell-based
HT-1080 [12] = assay: Potency index, ratio of (4-(bis(4-chlorophenyl)methyl)piperazin-1-yl)(5-methyl-4-nitroisoxazol-3-yl)methanone IC50 to test compound IC50 for antiproliferative activity against human HT-1080 cells; assay type: functional
[13] = target: T2, Phospholipid hydroperoxide glutathione peroxidase GPX4; assay: (§1) Induction of GPX4 degradation in human HT-1080 cells incubated for 6 hrs by Western blotting analysis; assay type: cell-based
[14] = target: T1, Phospholipid hydroperoxide glutathione peroxidase GPX4 (Homo sapiens); assay: as §1; assay type: cell-based; settings: dose 0.0001-0.1 µM
[15] = target: T1, Phospholipid hydroperoxide glutathione peroxidase GPX4 (Homo sapiens); assay: Induction of GPX4 degradation in human HT-1080 cells at 0.1 uM pretreated for 2 hrs followed by PYR41 addition and measured after 6 hrs; assay type: cell-based; settings: time 8.0 hrs
[16] = target: T1, Phospholipid hydroperoxide glutathione peroxidase GPX4 (Homo sapiens); assay: Induction of GPX4 degradation in human HT-1080 cells at 0.0001 to 0.1 uM incubated for 1 hr by Western blotting analysis; assay type: cell-based; settings: dose 0.0001-0.1 µM
HT-1080 [17] = assay: Antiproliferative activity against human HT-1080 cells at 1 uM incubated for 24 hrs in presence of liproxstatin-1; assay type: functional, cell-based
[18] = target: T1, Phospholipid hydroperoxide glutathione peroxidase GPX4 (Homo sapiens); assay: Induction of GPX4 degradation in human HT-1080 cells in presence of RSL3; assay type: cell-based
[19] = target: T1, Phospholipid hydroperoxide glutathione peroxidase GPX4 (Homo sapiens); assay: Induction of GPX4 degradation in human HT-1080 cells at 0.0001 to 0.1 uM incubated for 24 hrs by Western blotting analysis; assay type: cell-based; settings: dose 0.0001-0.1 µM
[20] = target: T1, Phospholipid hydroperoxide glutathione peroxidase GPX4 (Homo sapiens); assay: Induction of GPX4 degradation in human HT-1080 cells at 0.1 uM pretreated for 2 hrs followed by MG132 and measured after 6 hrs; assay type: cell-based; settings: time 8.0 hrs
[21] = target: T1, Phospholipid hydroperoxide glutathione peroxidase GPX4 (Homo sapiens); assay: Induction of GPX4 degradation in human HT-1080 cells in presence of lenalidomide; assay type: cell-based

Activity [1]: 64%
SMILES: COC(=O)[C@H]1Cc2c([nH]c3ccccc23)[C@H](c2ccc(C(=O)N3CCN(CCCCCCCCCCCNc4cccc5c4CN(C4CCC(=O)NC4=O)C5=O)CC3)cc2)N1C(=O)CCl (stereo partly specified)

Activity [2]: 22%
SMILES: COC(=O)[C@H]1Cc2c([nH]c3ccccc23)[C@H](c2ccc(C(=O)NCc3cn(CCOCCOCCOCCNc4cccc5c4C(=O)N(C4CCC(=O)NC4=O)C5=O)nn3)cc2)N1C(=O)CCl (stereo partly specified)

Activity [2]: inactive
SMILES: COC(=O)[C@H]1Cc2c([nH]c3ccccc23)[C@H](c2ccc(C(=O)NCc3cn(CCOCCOCCOCCNc4cccc5c4CN(C4CCC(=O)NC4=O)C5=O)nn3)cc2)N1C(=O)CCl (stereo partly specified)

Activity [3]: 3%
SMILES: COC(=O)[C@H]1Cc2c([nH]c3ccccc23)[C@H](c2ccc(C(=O)N3CCC(CN4CCN(CCCNc5cccc6c5C(=O)N(C5CCC(=O)NC5=O)C6=O)CC4)CC3)cc2)N1C(=O)CCl (stereo partly specified)

Activity [4]: inactive
SMILES: COC(=O)c1ccc([C@@H]2N[C@@H](C(=O)OC)Cc3c2[nH]c2ccccc32)cc1

Activity [3]: 5%
SMILES: COC(=O)[C@H]1Cc2c([nH]c3ccccc23)[C@H](c2ccc(C(=O)N3CCC(CN4CCN(CCCCCNc5cccc6c5C(=O)N(C5CCC(=O)NC5=O)C6=O)CC4)CC3)cc2)N1C(=O)CCl (stereo partly specified)

Activity [2]: inactive
SMILES: COC(=O)[C@H]1Cc2c([nH]c3ccccc23)[C@H](c2ccc(C(=O)NCc3cn(CCOCCOCCOCCOCCOCCNc4cccc5c4CN(C4CCC(=O)NC4=O)C5=O)nn3)cc2)N1C(=O)CCl (stereo partly specified)

Activity [2]: 11%
SMILES: COC(=O)[C@H]1Cc2c([nH]c3ccccc23)[C@H](c2ccc(C(=O)NCc3cn(CCOCCOCCOCCOCCOCCN[C@H](C(=O)N4C[C@H](O)C[C@H]4C(=O)N[C@@H](C)c4ccc(-c5scnc5C)cc4)C(C)(C)C)nn3)cc2)N1C(=O)CCl

Activity [4]: inactive
SMILES: CCCCCC(=O)N1[C@@H](c2ccc(C(=O)OC)cc2)c2[nH]c3ccccc3c2C[C@@H]1C(=O)OC

Activity [4]: inactive
SMILES: CCC(=O)N1[C@@H](c2ccc(C(=O)N3CCN(CCCCCCCCCCCCCNc4cccc5c4CN(C4CCC(=O)NC4=O)C5=O)CC3)cc2)c2[nH]c3ccccc3c2C[C@@H]1C(=O)OC (stereo partly specified)

Activity [2]: 32%
SMILES: COC(=O)[C@H]1Cc2c([nH]c3ccccc23)[C@H](c2ccc(C(=O)NCc3cn(CCOCCOCCNc4cccc5c4C(=O)N(C4CCC(=O)NC4=O)C5=O)nn3)cc2)N1C(=O)CCl (stereo partly specified)

Activity [1]: 58%
SMILES: COC(=O)[C@H]1Cc2c([nH]c3ccccc23)[C@H](c2ccc(C(=O)N3CCN(CCCCCCCCCCCCCCNc4cccc5c4CN(C4CCC(=O)NC4=O)C5=O)CC3)cc2)N1C(=O)CCl (stereo partly specified)

Activity [2]: 49%
SMILES: COC(=O)[C@H]1Cc2c([nH]c3ccccc23)[C@H](c2ccc(C(=O)NCc3cn(CCOCCOCCN[C@H](C(=O)N4C[C@H](O)C[C@H]4C(=O)N[C@@H](C)c4ccc(-c5scnc5C)cc4)C(C)(C)C)nn3)cc2)N1C(=O)CCl

Activity [1]: 56%
SMILES: COC(=O)[C@H]1Cc2c([nH]c3ccccc23)[C@H](c2ccc(C(=O)N3CCN(CCCCCCCCCCCCNc4cccc5c4C(=O)N(C4CCC(=O)NC4=O)C5=O)CC3)cc2)N1C(=O)CCl (stereo partly specified)

Activity [4]: inactive
SMILES: CCCC(=O)N1[C@@H](c2ccc(C(=O)OC)cc2)c2[nH]c3ccccc3c2C[C@@H]1C(=O)OC

Activity [1]: 48%
SMILES: COC(=O)[C@H]1Cc2c([nH]c3ccccc23)[C@H](c2ccc(C(=O)N3CCN(CCCCCCCCCNc4cccc5c4CN(C4CCC(=O)NC4=O)C5=O)CC3)cc2)N1C(=O)CCl (stereo partly specified)

Activity [2]: inactive
SMILES: COC(=O)[C@H]1Cc2c([nH]c3ccccc23)[C@H](c2ccc(C(=O)NCc3cn(CCOCCOCCOCCOCCNc4cccc5c4CN(C4CCC(=O)NC4=O)C5=O)nn3)cc2)N1C(=O)CCl (stereo partly specified)

Activity [1]: 10%
SMILES: COC(=O)[C@H]1Cc2c([nH]c3ccccc23)[C@H](c2ccc(C(=O)N3CCN(CCCCCCCNc4cccc5c4CN(C4CCC(=O)NC4=O)C5=O)CC3)cc2)N1C(=O)CCl (stereo partly specified)

Activity [1]: 44%
SMILES: COC(=O)[C@H]1Cc2c([nH]c3ccccc23)[C@H](c2ccc(C(=O)N3CCN(CCCCCCCCCCCCCCNc4cccc5c4C(=O)N(C4CCC(=O)NC4=O)C5=O)CC3)cc2)N1C(=O)CCl (stereo partly specified)

Activity [2]: 35%
SMILES: COC(=O)[C@H]1Cc2c([nH]c3ccccc23)[C@H](c2ccc(C(=O)NCc3cn(CCOCCOCCOCCOCCNc4cccc5c4C(=O)N(C4CCC(=O)NC4=O)C5=O)nn3)cc2)N1C(=O)CCl (stereo partly specified)

Activity [2]: 12%
SMILES: COC(=O)[C@H]1Cc2c([nH]c3ccccc23)[C@H](c2ccc(C(=O)NCc3cn(CCOCCOCCOCCOCCN[C@H](C(=O)N4C[C@H](O)C[C@H]4C(=O)N[C@@H](C)c4ccc(-c5scnc5C)cc4)C(C)(C)C)nn3)cc2)N1C(=O)CCl

Activity [5]: inactive | Activity [2]: 50%
SMILES: COC(=O)[C@H]1Cc2c([nH]c3ccccc23)[C@H](c2ccc(C(=O)NCc3cn(CCOCCOCCOCCN[C@H](C(=O)N4C[C@H](O)C[C@H]4C(=O)N[C@@H](C)c4ccc(-c5scnc5C)cc4)C(C)(C)C)nn3)cc2)N1C(=O)CCl
Activity (HT-1080 [6]): Active

Activity [1]: 46%
SMILES: COC(=O)[C@H]1Cc2c([nH]c3ccccc23)[C@H](c2ccc(C(=O)N3CCN(CCCCCCCCCCCNc4cccc5c4C(=O)N(C4CCC(=O)NC4=O)C5=O)CC3)cc2)N1C(=O)CCl (stereo partly specified)

Activity [3]: 15%
SMILES: COC(=O)[C@H]1Cc2c([nH]c3ccccc23)[C@H](c2ccc(C(=O)N3CCC(N4CCN(CCCCCCCCCNc5cccc6c5CN(C5CCC(=O)NC5=O)C6=O)CC4)CC3)cc2)N1C(=O)CCl (stereo partly specified)

Activity [1]: 68%
SMILES: COC(=O)[C@H]1Cc2c([nH]c3ccccc23)[C@H](c2ccc(C(=O)N3CCN(CCCCCCCCCCCCNc4cccc5c4CN(C4CCC(=O)NC4=O)C5=O)CC3)cc2)N1C(=O)CCl (stereo partly specified)

IC50 (HT-1080 [7]): 410 nM
SMILES: Cc1onc(C(=O)N2CCN(C(c3ccc(Cl)cc3)c3ccc(Cl)cc3)CC2)c1[N+](=O)[O-]
IC50 at 24 h [8]: 430 nM

Activity [1]: 67%
SMILES: COC(=O)[C@H]1Cc2c([nH]c3ccccc23)[C@H](c2ccc(C(=O)N3CCN(CCCCCCCCCCCCCNc4cccc5c4C(=O)N(C4CCC(=O)NC4=O)C5=O)CC3)cc2)N1C(=O)CCl (stereo partly specified)

Activity [4]: inactive
SMILES: CCC(=O)N1[C@@H](c2ccc(C(=O)OC)cc2)c2[nH]c3ccccc3c2C[C@@H]1C(=O)OC

DC50 [9]: 17.9 nM | DC50 [11]: 22.9 nM | DC50 [13]: 37.4 nM | Activity [14]: Dose-Dependent Effect | IC50 (HT-1080 [7]): 68 nM | Activity [15]: inactive | Activity [16]: Active | Activity [1]: 69% | Activity [18]: Active | Activity [19]: Active | Activity [3]: 57% | Activity [20]: inactive | Activity [21]: Active
SMILES: COC(=O)[C@H]1Cc2c([nH]c3ccccc23)[C@H](c2ccc(C(=O)N3CCN(CCCCCCCCCCCCCNc4cccc5c4CN(C4CCC(=O)NC4=O)C5=O)CC3)cc2)N1C(=O)CCl (stereo partly specified)
Ratio IC50 (HT-1080 [10]): 2 | Ratio IC50 (HT-1080 [12]): 6 | IC50 at 24 h [8]: 205 nM | Activity (HT-1080 [17]): inactive

Activity [2]: inactive
SMILES: COC(=O)[C@H]1Cc2c([nH]c3ccccc23)[C@H](c2ccc(C(=O)NCc3cn(CCOCCOCCNc4cccc5c4CN(C4CCC(=O)NC4=O)C5=O)nn3)cc2)N1C(=O)CCl (stereo partly specified)

Activity [3]: 34%
SMILES: COC(=O)[C@H]1Cc2c([nH]c3ccccc23)[C@H](c2ccc(C(=O)N3CCC(CN4CCN(CCCCCCCCNc5cccc6c5C(=O)N(C5CCC(=O)NC5=O)C6=O)CC4)CC3)cc2)N1C(=O)CCl (stereo partly specified)

Activity [2]: 15%
SMILES: COC(=O)[C@H]1Cc2c([nH]c3ccccc23)[C@H](c2ccc(C(=O)NCc3cn(CCOCCOCCOCCOCCOCCNc4cccc5c4C(=O)N(C4CCC(=O)NC4=O)C5=O)nn3)cc2)N1C(=O)CCl (stereo partly specified)
